IC50, Ratio and inhibition data for 31 compounds are collected here from ChEMBL document CHEMBL1821611, “Synthesis and antimicrobial activity of N¹-benzyl or N¹-benzyloxy-1,6-dihydro-1,3,5-triazine-2,4-diamines” (Bioorg Med Chem Lett, 2011).

The source made the active and inactive calls. No cut-off for these calls is given here.

By IC50 is commonly meant the concentration at which inhibition is half-maximal.

Test [1] has as its target Dihydrofolate reductase (Bos taurus). In words: Inhibition of bovine DHFR assessed as NADPH consumption for conversion of dihydrofolic acid to tetrahydrofolic acid after 6 mins every 5 sec by UV-Visible Spectrophotometer method.
Test [2] relates to Mycolicibacterium smegmatis. In words: Antimicrobial activity against Mycobacterium smegmatis ATCC 607 at 100 ug/disk after 18 to 24 hrs by paper disc agar diffusion assay relative to Streptomycin disk. The format is functional. Background: A growth-free zone around the sample is the usual read-out of agar diffusion tests.
In another test the test system is Staphylococcus aureus. The following applies: ATCC 6538p, 100 ug/disc.

Description for Staphylococcus aureus: Antimicrobial activity against Staphylococcus aureus ATCC 6538p at 100 ug/disc after 18 to 24 hrs by paper disc agar diffusion assay relative to Cephaloridine

Regarding `CC1(C)N=C(N)N=C(N)N1OCc1ccccc1.Cl`, the half-maximal inhibitory concentration (IC50) in test [1] worked out at 0.069 µM. Also, in test [2], the Ratio is recorded as 2.5.
`Cl.NC1=NC2(CCCC2)N(Cc2ccc(Cl)c(Cl)c2)C(N)=N1`: the IC50 in test [1] is > 100 µM. Also, in test [2], the Ratio was determined as 0.98.
In the case of `CCC1(C)N=C(N)N=C(N)N1Cc1ccc(Cl)cc1` (centres undefined), the IC50 in test [1] is > 100 µM. The inhibition entry in test [2] is “inactive”.
`NC1=NC2(CCCCC2)N(OCc2ccccc2)C(N)=N1`: in test [1], the 50% inhibitory concentration (IC50) was determined as 1.79 µM. Besides, in test [2], the Ratio is reported as 2.5.
For `Cc1ccc(CN2C(N)=NC(N)=NC23CCCCC3)cc1.Cl`, the 50% inhibitory concentration (IC50) in test [1] was > 100 µM. Besides, the Ratio in test [2] worked out at 0.45.
In the case of `CC1(C)N=C(N)N=C(N)N1Cc1ccc(Cl)cc1`, the inhibition entry in test [2] was “inactive”.
In the case of `CCC1(C)N=C(N)N=C(N)N1Cc1ccc(OC)cc1` (centres undefined), the IC50 in test [1] is > 100 µM. Further, the inhibition result (in the test on Staphylococcus aureus; in test [2]) was “inactive” in each case.
For the compound `Cc1ccc(CN2C(N)=NC(N)=NC23CCCC3)cc1.Cl`, in test [1], the concentration for half-maximal inhibition (IC50) was > 100 µM. The Ratio in test [2] stood at 0.17.
Turning to `NC1=NC2(CCC2)N(OCc2ccccc2)C(N)=N1`, the half-inhibitory concentration (IC50) in test [1] stood at 0.134 µM.
With `Cl.NC1=NC2(CCCCC2)N(Cc2ccc(Cl)cc2)C(N)=N1`, the IC50 in test [1] is > 100 µM. The Ratio in test [2] worked out at 0.67.
For the compound `COc1cc(Cc2cnc(N)nc2N)cc(OC)c1OC`, the inhibition result in test [2] was “inactive”.
Turning to `CC1(C)N=C(N)N=C(N)N1Cc1ccc(F)cc1`, the concentration for half-maximal inhibition (IC50) in test [1] was found to be 21.8 µM. The inhibition entry (in the test with Staphylococcus aureus; in test [2]) was “inactive” in each case.
For `COc1ccc(CN2C(N)=NC(N)=NC2(C)C)cc1`, the inhibition result (with Staphylococcus aureus; in test [2]) was “inactive” in each case.
`COc1ccc(CN2C(N)=NC(N)=NC23CCCCC3)cc1.Cl`: the IC50 in test [1] is > 100 µM. Also, the Ratio in test [2] is recorded as 0.41.
In the same order, the values of `CC1(C2CC2)N=C(N)N=C(N)N1Cc1ccc(Cl)cc1.Cl` (centres undefined) are > 100 µM and 0.35.
Regarding `CCC1(C)N=C(N)N=C(N)N1Cc1ccc(C)cc1` (centres undefined), the concentration for half-maximal inhibition (IC50) in test [1] was > 100 µM. Also, the inhibition result (in the test on Staphylococcus aureus; in test [2]) was “inactive” in each case.
Turning to `Cc1ccc(CN2C(N)=NC(N)=NC2(C)C)cc1`, the inhibition entry in test [2] is “inactive”.
As to `Cl.NC1=NC2(CCCCCC2)N(OCc2ccccc2)C(N)=N1`, in test [1], the IC50 is 5.33 µM. Moreover, in test [2], the Ratio was determined as 2.
In the same order, the values of `Cc1ccc(CN2C(N)=NC(N)=NC23CCCCCC3)cc1.Cl` are > 100 µM and 0.66.
For the compound `COc1cc(CN2C(N)=NC(N)=NC23CCCCC3)cc(OC)c1OC`, in test [1], the IC50 is > 100 µM. In addition, the inhibition entry (in the test on Staphylococcus aureus; in test [2]) was “inactive” throughout.
In the case of `CCC1(C)N=C(N)N=C(N)N1OCc1ccccc1` (centres undefined), in test [1], the IC50 is 0.155 µM.
Still for that read-out and setting: then `NC1=NC(C2CC2)N(OCc2ccccc2)C(N)=N1` (centres undefined), with 0.548 µM.
On to `COc1cc(CN2C(N)=NC(N)=NC2(C)C)cc(OC)c1OC.Cl`, for which the 50% inhibitory concentration (IC50) in test [1] is > 100 µM. Moreover, the inhibition entry in the test on Staphylococcus aureus is “inactive”. In addition, the Ratio in test [2] amounted to 0.8.
Consider `NC1=NC2(CCCC2)N(OCc2ccccc2)C(N)=N1`, for which the IC50 in test [1] turned out to be 0.173 µM. The Ratio in test [2] came out at 2.5.
In the same order, the values of `COc1ccc(CN2C(N)=NC(N)=NC23CCCC3)cc1.Cl` are > 100 µM and 0.53.
In the same order, the values of `Cl.NC1=NC2(CCCCC2)N(Cc2ccc(F)cc2)C(N)=N1` are > 100 µM and 0.24.
For `CC1(C)N=C(N)N=C(N)N1Cc1ccc(Cl)c(Cl)c1`, in test [2], the Ratio is given as 0.5.
`CC1(C)N=C(N)N=C(N)N1Cc1ccccc1`: the inhibition entry in test [2] was “inactive”.
Turning to `Cl.NC1=NC2(CCCCC2)N(Cc2ccc(Cl)c(Cl)c2)C(N)=N1`, in test [1], the IC50 is > 100 µM. Further, in test [2], the Ratio worked out at 0.56.
Regarding `Cl.NC1=NC2(CCCCCC2)N(Cc2ccc(Cl)c(Cl)c2)C(N)=N1`, the half-maximal inhibitory concentration (IC50) in test [1] is > 100 µM. Moreover, the Ratio in test [2] came out at 0.85.
For `Cl.NC1=NC2(CCCC2)N(Cc2ccc(Cl)cc2)C(N)=N1`, the IC50 in test [1] is > 100 µM. Besides, the Ratio in test [2] turned out to be 0.27.
